In US8211883B2, “Topical delivery of phthalocyanines” (priority 2004, dated 2012):
Marks after values point to notes of the source that are not given here.

What was measured:
[1] = tested on: Chinese hamster V79-379 lung fibroblasts; assay: Uptake of phthalocyanines into V79 cells; conditions: for n Moles/10^6 Cells/μM (composite uptake value): V79 cells, average of all data, asterisk: listed value is for 1 μM, average would be higher
Description: Chinese hamster V79-379 lung fibroblasts were grown in monolayer culture in McCoy's 5A medium (Gibco Laboratories, Grand Island, N.Y.) augmented with 10% calf serum and buffered with 20 mM HEPES (pH 7.4).
Total uptake was determined by scraping the phthalocyanine-treated monolayer, collecting the cells on a glass-fiber filter, and extracting the phthalocyanine in ethanol, as previously described by Ramakrishnan, et al., 1989. (Ramakrishnan, N., M. E. Clay, M. F. Horng, A. R. Antunez, & H. H. Evans, “DNA Lesions and DNA Degradation in Mouse Lymphoma L5178Y Cells After Photodynamic Treatment Sensitized by Chloroaluminum Phthalocyanine”, Photochem. Photobiol, in press, 1989). The amount of drug was determined by absorption at 674 nm and expressed relative to the number of cells, as measured in a Coulter cell counter on an aliquot of the cell population. Controls included cells not treated with drug, medium alone, and drug-containing medium without cells.
The cells were treated with 1 μM AlPcCl (from Eastman Kodak, Rochester, N.Y.) or with phthalocyanine compositions I-VI (0.5-1.0 μM final concentration in the medium) for 18 hours by adding the appropriate volume of a 1.0 mM stock solution in dimethylformamide (DMF) to the culture medium. The growth medium was replaced with 4 mL Hank's balanced salt solution (HBSS), and the cells were irradiated. The light source was a 500 W tungsten-halogen lamp located approximately 29 inches below the surface of a glass exposure tray. The visible light administered to the cells was filtered to allow passage of only that portion of the visible spectrum above 600 nm (Lee Primary red filter No. 106, Vincent Lighting, Cleveland, Ohio). The fluence rate was approximately 0.074 kJ/m^2/s at the level of the cell monolayer.
V79 cells Chinese hamster lung fibroblasts were cultured using the cell culture methods described above. The phthalocyanines listed in table 2 were added to the cultures typically at concentrations of 1 μM, 2 μM, and/or 4 μM and incubated for 18 hours, after which aliquots of the cells were counted and other aliquots were collected on a glass fiber filter. When the filters were dry, the phthalocyanines were extracted into ethanol and the absorption determined at the peak wavelength, usually 668 nm. Values were converted to nmoles taken up by 10^6 cells, using an extinction coefficient of 2.93×10^5.

[2] = tested on: Chinese hamster V79-379 lung fibroblasts; assay: Clonogenic cell survival of V79 cells after photodynamic treatment; format: cell-based; conditions: for LD 90 (light dosage that kills 90% of cells): 18 hours, 675 nm red light, VII# preplated data only, XXI* not totally soluble at 0.5 mM
Description: Cells were irradiated at a density of approximately 2×10^6 per 25 cm^2 flask. Immediately after irradiation, the cell monolayer was treated with trypsin, and appropriate aliquots were plated in triplicate to give 100 to 200 colonies in each 10-cm Petri dish. Cell survival was determined by the ability of the cells to form colonies containing at least 50 cells. The response of cells treated with 1 μM AlPcCl and light was compared in each experiment.
Photocytotoxicity of the phthalocyanines compounds I to VI was also assessed by clonogenic assay (Table 1, FIG. 1). In all experiments, 1 μM AlPcCl was included for comparison purposes. From the survival curves (FIG. 1), the fluence reducing the cell survival to 10% (F10) was obtained. The ratio of the F10 for AlPcCl and the F10 for the test compound is recorded in Table 1. Compounds I and II appear to be nearly as efficient photosensitizers as AlPcCl, while compound IV (assayed at half the concentration) was almost twice as efficient as the standard AlPcCl. […] However, in spite of the low efficiency of compound V in inhibiting cell growth, survival measurements were made for this compound, because it was taken up into V79 cells somewhat more efficiently than compounds III and VI.
In order to take differences in cellular uptake into consideration in the assessment of the relative efficiency of these phthalocyanines as photosensitizers of V79 cells, the survival data were replotted against the product of intracellular phthalocyanine concentration and light fluence (FIG. 2). From these curves, the product of intracellular concentration and light fluence reducing survival to 10% (CF10) was obtained, and comparisons of the values for AlPcCl and the test compounds are recorded in Table 1. By this and the other criteria, compound IV appears to be the most efficient photosensitizer. However, when consideration is given to the lesser cell uptake of compound V, it appears to be about as strong a photosensitizer as compound IV.
Using the cell culture methods described above, V79 cells Chinese hamster lung fibroblasts were treated with either 0.5 or 1.0 μM of the phthalocyanines listed in Table 3. About 18 hours thereafter, the cells were irradiated with increasing doses of 675 nm broad band red light from a 500 W tungsten-halogen lamp fitted with a 600 nm high pass filter, to determine the light dosage that would kill 90% of the phthalocyanine treated cells. Where 90% of the cells were not killed, the maximum percent of cells killed were determined, (expressed as % survival) and the related light dosage recorded.

L5178Y cells = assay: Induction of apoptosis (DNA ladder) in L5178Y cells after PDT; format: cell-based, Mouse; conditions: for Fluence, Minimum Demonstrated Condition to Induce Apoptosis / C × F Ld90, Minimum Demonstrated Condition to Induce Apoptosis: 0.5 μM; for C × F Ld90, Minimum Demonstrated Condition to Induce Apoptosis: product of concentration and fluence; for induction of apoptosis: 1 μM at a fluence of 30 kJ/m^2
Description: The cells were used while in exponential growth. Stock solutions of either 0.5 or 1 mM of PcIV, PcXII, PcX, PcXVIII were prepared in dimethylformamide unless otherwise indicated and added to the 10 mL medium at a rate of 1 μL per mL. After allowing 18 hours for uptake of the phthalocyanine into the cells, the flasks containing the cultures were placed on a glass exposure tray above a 500-W tungsten-halogen lamp. The exposure tray was fitted with a 600-nm high-pass filter. Flasks were exposed to various fluences of red light (up to 30 kJ/m^2) at a fluence rate of approximately 74 W/m^2). After irradiation, the cells were collected by centrifugation.
The aliquots were plated in sufficient numbers to produce 50-200 colonies. The dishes were kept in an incubator at 37° C. in an atmosphere of 5% CO2 and 95% air for 10-14 days to allow viable cells to form colonies. Colonies were counted by eye. […] The plating efficiencies of the treated cells are normalized to the plating efficiencies of control cells in each experiment.
Cells were treated with various concentrations of the compounds listed in the table and various light fluences. DNA gels were prepared and examined for the characteristic “ladder” pattern of DNA fragments. For each Pc, the minimum total PDT dose tested (calculated as the product of the minimum phthalocyanine concentration and the minimum fluence) which produced visible DNA fragments is recorded. […] PcXVIII was also added at 0.5 and 1.0 μM.

| Compound | Uptake Into V79 Cells, 1 μM ([1]; 18 hours) | Uptake Into V79 Cells, 4 μM ([1]; 18 hours) | n Moles/10^6 Cells/μM (composite uptake value) [1] | other results |
| --- | --- | --- | --- | --- |
| C[Si](C)(CCCCN)O[Si]1(O[Si](C)(C)CCCCN)n2c3c4ccccc4c2N=C2N=C(N=c4c5ccccc5c(n41)=NC1=NC(=N3)c3ccccc31)c1ccccc12 [Compound VII, SiPc[OSi(CH3)2(CH2)4NH2]2] | 0.2 ± 0.03 n Moles/10^6 cells | 1.1 ± 0.5 n Moles/10^6 cells | 0.2 n Moles/10^6 Cells/μM | LD 90 (light dosage that kills 90% of cells) ([2]; 0.5 μM): 4 kj/m^2; Fluence, Minimum Demonstrated Condition to Induce Apoptosis (L5178Y cells): 3.0 kJ/m^2; C × F Ld90, Minimum Demonstrated Condition to Induce Apoptosis (L5178Y cells): 1.5 kJ/m^2 |
| C[Si](C)(CCCCNC(=S)N[C@@H]1O[C@H](CO)[C@@H](O)[C@H](O)[C@H]1O)O[Si]1(O[Si](C)(C)CCCCNC(=S)N[C@@H]2O[C@H](CO)[C@@H](O)[C@H](O)[C@H]2O)n2c3c4ccccc4c2N=C2N=C(N=c4c5ccccc5c(n41)=NC1=NC(=N3)c3ccccc31)c1ccccc12 [Compound XI, SiPc[OSi(CH3)2(CH2)4NHCSNHC6H111O5]2] | 0.1 n Moles/10^6 cells | 0.3 ± 0.1 n Moles/10^6 cells | 0.1 n Moles/10^6 Cells/μM | Maximum Effect (% survival at kj/m^2) ([2]; 1 μM, at 20 kj/m^2): 100% at 20; induction of apoptosis (L5178Y cells): did not induce apoptosis |
| CC(=O)OCCC[Si](C)(C)O[Si]1(O)n2c3c4ccccc4c2N=C2N=C(N=c4c5ccccc5c(n41)=NC1=NC(=N3)c3ccccc31)c1ccccc12 (centres unmarked) [Compound XIII, HOSiPcOSi(CH3)2(CH2)3OCOCH3] |  | 1.7 ± 0.3 n Moles/10^6 cells | 0.4 n Moles/10^6 Cells/μM | Maximum Effect (% survival at kj/m^2) ([2]; 1 μM, at 15 kj/m^2): 88% at 15 |
| CCCCCCCCCCCC[N+](C)(C)CCC[Si](C)(C)O[Si]1(O[Si](C)(C)CCC[N+](C)(C)CCCCCCCCCCCC)n2c3c4ccccc4c2N=C2N=C(N=c4c5ccccc5c(n41)=NC1=NC(=N3)c3ccccc31)c1ccccc12 [Compound XIV, SiPc[OSi(CH3)2(CH2)3N^+(CH3)2(CH2)11CH3]22I^−] | 0.03 ± 0.01 n Moles/10^6 cells | 0.05 ± 0.01 n Moles/10^6 cells | <0.05 n Moles/10^6 Cells/μM | Maximum Effect (% survival at kj/m^2) ([2]; 1 μM, at 10 kj/m^2): 93% at 10; induction of apoptosis (L5178Y cells): did not induce apoptosis |
| C[Si](C)(CCCN1CCOCC1)O[Si]1(O)n2c3c4ccccc4c2N=C2N=C(N=c4c5ccccc5c(n41)=NC1=NC(=N3)c3ccccc31)c1ccccc12 (centres unmarked) [Compound XIX, HOSiPcOSi(CH3)2(CH2)3NC4H8O] | 0.3 ± 0.1 n Moles/10^6 cells | 2.4 ± 0.5 n Moles/10^6 cells |  | Maximum Effect (% survival at kj/m^2) ([2]; 1 μM, at 10 kj/m^2): 81% at 10 |
| CCN(CC)c1ccc2c(c1)Oc1cc(N(CC)CC)ccc1C21c2ccccc2C(=O)N1CCCC[Si](C)(C)O[Si]1(O[Si](C)(C)C(C)(C)C)n2c3c4ccccc4c2N=C2N=C(N=c4c5ccccc5c(n41)=NC1=NC(=N3)c3ccccc31)c1ccccc12 (centres unmarked) [Compound XV, (CH3)3C(CH3)2SiOSiPcOSi(CH3)2(CH2)4NCOC27H30N2O] | 0.01 ± 0.01 n Moles/10^6 cells | 0.14 ± 0.12 n Moles/10^6 cells | <0.05 n Moles/10^6 Cells/μM | Maximum Effect (% survival at kj/m^2) ([2]; 4 μM, at 20 kj/m^2): 81% at 20; induction of apoptosis (L5178Y cells): did not induce apoptosis |
| C[Si](C)(CCCO)O[Si]1(O)n2c3c4ccccc4c2N=C2N=C(N=c4c5ccccc5c(n41)=NC1=NC(=N3)c3ccccc31)c1ccccc12 (centres unmarked) [Compound XVII, HOSiPCOSi(CH3)2(CH2)3OH] |  | 1.7 ± 0.2 n Moles/10^6 cells | 0.4 n Moles/10^6 Cells/μM | Maximum Effect (% survival at kj/m^2) ([2]; 1 μM, at 10 kj/m^2): 19% at 10 |
| CCCCCCCCCCCC[N+](C)(C)CCC[Si](C)(C)[O][Al]1[n]2c3c4ccccc4c2N=C2N=C(N=c4c5ccccc5c([n]41)=NC1=NC(=N3)c3ccccc31)c1ccccc12.[I-] [Compound XXI, AlPcOSi(CH3)2(CH2)3N^+(CH3)2)(CH2)11CH3I^−] | 1.2 ± 0.2 n Moles/10^6 cells | 5.8 ± 0.4 n Moles/10^6 cells | 1.3 n Moles/10^6 Cells/μM | LD 90 (light dosage that kills 90% of cells) ([2]; 0.5 μM): 15* kj/m^2 |
| CN(C)CCCCCCCC[Si](C)(C)O[Si]1(O)n2c3c4ccccc4c2N=C2N=C(N=c4c5ccccc5c(n41)=NC1=NC(=N3)c3ccccc31)c1ccccc12 (centres unmarked) [Compound XXII, HOSiPcOSi(CH3)2(CH2)8N(CH3)2] |  |  |  | LD 90 (light dosage that kills 90% of cells) ([2]; 0.5 μM): 10 kj/m^2; Fluence, Minimum Demonstrated Condition to Induce Apoptosis (L5178Y cells): 10.0 kJ/m^2; C × F Ld90, Minimum Demonstrated Condition to Induce Apoptosis (L5178Y cells): 5.0 kJ/m^2 |
| C[Si](C)(CCCN1CCSCC1)O[Si]1(O)n2c3c4ccccc4c2N=C2N=C(N=c4c5ccccc5c(n41)=NC1=NC(=N3)c3ccccc31)c1ccccc12 (centres unmarked) [Compound XXIV, HOSiPCOSi(CH3)2(CH2)3NC4H8S] | 0.003 ± 0.001 n Moles/10^6 cells | 1.3 ± 0.1 n Moles/10^6 cells | <0.05* n Moles/10^6 Cells/μM | Maximum Effect (% survival at kj/m^2) ([2]; 0.5 μM, at 10 kj/m^2): 100% at 10 |
| CCCCN(CCCC)CCC[Si](C)(C)O[Si]1(O)n2c3c4ccccc4c2N=C2N=C(N=c4c5ccccc5c(n41)=NC1=NC(=N3)c3ccccc31)c1ccccc12 (centres unmarked) [Compound XXV, HOSiPcOSi(CH3)2(CH2)3N(CH2)3CH3)2] | 0.02 ± 0.02 n Moles/10^6 cells | 1.5 ± 0.3 n Moles/10^6 cells | <0.05* n Moles/10^6 Cells/μM | Maximum Effect (% survival at kj/m^2) ([2]; 0.5 μM, at 8 kj/m^2): 87% at 8 |
| C[Si](C)(CCCN=C=S)O[Si]1(O)n2c3c4ccccc4c2N=C2N=C(N=c4c5ccccc5c(n41)=NC1=NC(=N3)c3ccccc31)c1ccccc12 (centres unmarked) [Compound XXVI, HOSiPcOSi(CH3)2(CH2)3NCS] |  |  |  | Maximum Effect (% survival at kj/m^2) ([2]; 1 μM, at 30 kj/m^2): 100% at 30 |
| CN(C)CCCN(CCCN(C)C)CCC[Si](C)(C)O[Si]1(O)n2c3c4ccccc4c2N=C2N=C(N=c4c5ccccc5c(n41)=NC1=NC(=N3)c3ccccc31)c1ccccc12 (centres unmarked) [Compound XXVII, HOSiPcOSi(CH3)2(CH2)3N[(CH2)3N(CH3)2]2] | 1.8 n Moles/10^6 cells | 5.0 ± 0.01 n Moles/10^6 cells | 1.5 n Moles/10^6 Cells/μM | LD 90 (light dosage that kills 90% of cells) ([2]; 0.5 μM): 6.8 kj/m^2 |
| CCCCN1CCN(CCC[Si](C)(C)O[Si]2(O)n3c4c5ccccc5c3N=C3N=C(N=c5c6ccccc6c(n52)=NC2=NC(=N4)c4ccccc42)c2ccccc23)CC1 (centres unmarked) [Compound XXXI, HOSiPCOSi(CH3)2(CH2)3NC4H8N(CH2)3CH3] |  |  | 0.3 n Moles/10^6 Cells/μM | Uptake Into V79 Cells, 2 μM ([1]; 2 μM, 18 hours): 0.61 ± 0.1 n Moles/10^6 cells; Maximum Effect (% survival at kj/m^2) ([2]; 0.5 μM, at 10 kj/m^2): 30% at 10 |
